The term chromatographic logP denotes lipophilicity estimated from chromatographic retention.

Four molecules from patent US10667517B2, “2-(Het)aryl-substituted fused heterocycle derivatives as pesticides” (BAYER CROPSCIENCE AKTIENGESELLSCHSAFT, priority 2015, dated 2020) can be followed below.

One series has as its system Myzus persicae. The series can be described thus: Myzus persicae - spray test. In kind it is in vivo. The conditions noted are these: application rate 500 g/ha; all stages of green peach aphid on Chinese cabbage leaf discs; after 5-6 days. The method, then:
Myzus persicae—Spray Test
• Solvent: 78 parts by weight of acetone • 1.5 parts by weight of dimethylformamide • Emulsifier: alkylaryl polyglycol ether
(§1) To produce a suitable active compound preparation, 1 part by weight of active compound is dissolved with the stated parts by weight of solvent and made up with water containing an emulsifier concentration of 1000 ppm until the desired concentration is attained. To produce further test concentrations, the preparation is diluted with emulsifier-containing water.
Discs of Chinese cabbage leaves (Brassica pekinensis) infested by all stages of the green peach aphid (Myzus persicae) are sprayed with an active compound preparation of the desired concentration.
After 5-6 days, the efficacy in % is determined. 100% means that all the aphids have been killed; 0% means that no aphids have been killed.

Another series concerns Meloidogyne incognita. In words: Meloidogyne incognita test. In kind it is in vivo. The following applies: application rate 20 ppm; egg/larvae suspension with lettuce seeds in sand; formation of galls after 14 days. Here is the method:
Meloidogyne incognita Test • Solvent: 125.0 parts by weight of acetone To produce a suitable preparation of active compound, 1 part by weight of active compound is mixed with the stated amount of solvent and the concentrate is diluted with water to the desired concentration. Vessels are filled with sand, active compound solution, an egg/larvae suspension of the southern root-knot nematode (Meloidogyne incognita) and lettuce seeds. The lettuce seeds germinate and the plants develop. The galls develop on the roots. After 14 days, the nematicidal efficacy in % is determined by the formation of galls. 100% means that no galls were found; 0% means that the number of galls on the treated plants corresponds to the untreated control.

A further series has as its system Phaedon cochleariae. The series can be described thus: Phaedon cochleariae - spray test. In kind it is in vivo. The following applies: application rate 500 g/ha, mustard beetle larvae on Chinese cabbage leaf discs, after 7 days; for pest or weed control at 500 g/ha: Phaedon cochleariae, foliar, 168 h, read-out: efficacy. Here is the method:
Phaedon cochleariae—Spray Test
(§2) • Solvent: 78.0 parts by weight of acetone • 1.5 parts by weight of dimethylformamide • Emulsifier: alkylaryl polyglycol ether
as §1
After 7 days, the efficacy in % is determined. 100% means that all the beetle larvae have been killed; 0% means that no beetle larvae have been killed.

Series [1] in a line: log P (neutral), HPLC on reversed-phase column (C 18), LC-MS neutral range. In kind it is physicochemical. The conditions noted are these: pH 7.8, ammonium hydrogencarbonate/acetonitrile; for chromatographic logP: reversed-phase HPLC column (C 18), pH 7.8, HPLC reversed-phase C 18, 55° C.; for log P (neutral): HPLC reversed-phase C 18, 55° C. Here is the method: Temperature: 55° C. […] Called log P (neutral) in the table.

The test system of the next series is Spodoptera frugiperda. The series can be described thus: Spodoptera frugiperda - spray test. In kind it is in vivo. The conditions noted are these: application rate 500 g/ha; armyworm caterpillars on maize leaf discs; after 7 days. Here is the method: Spodoptera frugiperda—Spray Test
as §2, §1
Leaf discs of maize (Zea mays) are sprayed with an active compound preparation of the desired concentration and, after drying, populated with caterpillars of the armyworm (Spodoptera frugiperda).
After 7 days, the efficacy in % is determined. 100% means that all the caterpillars have been killed; 0% means that no caterpillars have been killed.

Another series has as its system Tetranychus urticae. The series can be described thus: Tetranychus urticae - spray test, OP-resistant. In kind it is in vivo. The following applies: application rate 500 g/ha; all stages of greenhouse red spider mite on bean leaf discs; after 6 days. Here is the method: Tetranychus urticae—Spray Test, OP-Resistant
as §2, §1
Discs of bean leaves (Phaseolus vulgaris) infested with all stages of the greenhouse red spider mite (Tetranychus urticae) are sprayed with an active compound preparation of the desired concentration.
After 6 days, the efficacy in % is determined. 100% means that all the spider mites have been killed; 0% means that no spider mites have been killed.

The structures appear in SMILES notation.

`CCS(=O)(=O)c1ccc(N)nc1-c1nc2cc(C(F)(F)F)cnc2n1C` [Example I-6, 5-(Ethylsulphonyl)-6-[3-methyl-6-(trifluoromethyl)-3H-imidazo[4,5-b]pyridin-2-yl]pyridin-2-amine] displayed an efficacy in the series with Myzus persicae of 90%. In the series on Meloidogyne incognita, this molecule gave a nematicidal efficacy of 90%. Besides, the pest or weed control at 500 g/ha in the series on Phaedon cochleariae is 100%. This molecule returned a chromatographic logP in series [1] of 2.02.
For `CCS(=O)(=O)c1ccc(N)nc1-c1nc2cc3c(cc2n1C)OC(F)(F)O3` [Example I-8, 6-(2,2-Difluoro-7-methyl-[1,3]dioxolo[4,5-f]benzimidazol-6-yl)-5-ethylsulphonylpyridin-2-amine], the efficacy is recorded as 90% in the series on Myzus persicae, 100% in the series on Spodoptera frugiperda and 90% with Tetranychus urticae. Besides, the pest or weed control at 500 g/ha in the series on Phaedon cochleariae is 100%. Besides, the chromatographic logP in series [1] was determined as 2.1.
Regarding `CCS(=O)(=O)c1ccc(NC(=O)C(F)(F)F)nc1-c1nc2cc(C(F)(F)F)cnc2n1C` [Example I-15], the efficacy in the series with Myzus persicae was 100%; in the series on Spodoptera frugiperda it was 83%; with Phaedon cochleariae, 100%. In addition, the nematicidal efficacy with Meloidogyne incognita came out at 90%. Further, in series [1], the “log P (neutral)” value is reported as 2.00.
In the case of `CCS(=O)(=O)c1ccc(NC(=O)C(C)CS(C)(=O)=O)nc1-c1nc2cc(C(F)(F)F)cnc2n1C` (stereo not drawn) [Example I-21], the values for the efficacy in the series on Myzus persicae and in the series on Phaedon cochleariae were 90% and 100%, respectively. This molecule came in with a nematicidal efficacy in the series with Meloidogyne incognita of 90%. Also, the “log P (neutral)” value in series [1] amounted to 2.31.
